Measured values taken from patent US5968907A (priority 1997, dated 1999).

Legend:
cholera toxin = cholera toxin (Vibrio cholerae serotype O1, UniProt P01556); assay: biochemical; details: read-out: inhibition of binding of cholera toxin to ganglioside GD1b
[1] = molecular target: heat-labile enterotoxin from E. coli (Escherichia coli, UniProt P0CK94); format: binding; details: at the concentration employed in the assay
Sequence of heat-labile enterotoxin from E. coli (P0CK94 whole entry, looked up): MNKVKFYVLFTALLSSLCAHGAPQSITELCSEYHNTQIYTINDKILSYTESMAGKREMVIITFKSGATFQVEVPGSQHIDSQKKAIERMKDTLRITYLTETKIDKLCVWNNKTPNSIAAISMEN

Sequence of cholera toxin (P01556 22-124 limits assumed): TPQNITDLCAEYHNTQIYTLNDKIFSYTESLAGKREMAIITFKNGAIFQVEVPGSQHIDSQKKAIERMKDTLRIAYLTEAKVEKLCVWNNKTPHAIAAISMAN

Compound	inhibition at 1000 µg/mL (cholera toxin)	inhibition of binding of heat-labile enterotoxin to ganglioside GD1b [1]
CC(C)C[C@H](NC1CCCC(S[C@@H]2O[C@H](CO)[C@H](O)[C@H](O)[C@H]2O)C1)C(=O)O (stereo partly drawn) [Example G10, Nα-[3-(1-Thio-β-D-galactopyranosyl)cyclohex-1-yl]-L-leucine]	< 20%	–
OC[C@H]1O[C@@H](SC2CCCCC2O)[C@H](O)[C@@H](O)[C@H]1O (stereo partly drawn) [Example A2, 2-Hydroxycyclohex-1-yl 1-Thio-β-D-galactopyranoside]	–	< 20%
CC(=O)NC(C)CC(S[C@@H]1O[C@H](CO)[C@H](O)[C@H](O)[C@H]1O)c1ccccc1 (stereo partly drawn) [Example C3, 3-Acetamido-1-phenylbut-1-yl 1-Thio-β-D-galactopyranoside]	< 20%	–
CC1CCCC(NC2CC(S[C@@H]3O[C@H](CO)[C@H](O)[C@H](O)[C@H]3O)C(C)(C)C2)C1 (stereo partly drawn) [Example B6T, 2,2-Dimethyl-4-(3-methylcyclohex-1-ylamino)-cyclopent-1-yl 1-Thio-β-D-galactopyranoside]	≥ 20%	–
CC1(C)CCC(S[C@@H]2O[C@H](CO)[C@H](O)[C@H](O)[C@H]2O)CC1NCCC(=O)O (stereo partly drawn) [Example F11, N-β-[5-(1-Thio-α-D-galactopyranosyl)-2,2-dimethylcyclohex-1-yl]-β-alanine]	–	at least 20%
CC1CCC(NC2CC(S[C@@H]3O[C@H](CO)[C@H](O)[C@H](O)[C@H]3O)C(C)(C)C2)CC1 (stereo partly drawn) [Example B6L, 2,2-Dimethyl-4-(4-methylcyclohex-1-ylamino)-cyclopent-1-yl 1-Thio-β-D-galactopyranoside]	≥ 20%	–
N=C(N)NCCC[C@H](NC1CCCC(S[C@@H]2O[C@H](CO)[C@H](O)[C@H](O)[C@H]2O)C1)C(=O)O (stereo partly drawn) [Example J10, Nα-[3-(1-Thio-β-D-galactopyranosyl)cyclohex-1-yl]-L-arginine]	< 20%	–
O=C(O)CNC1CCCC(S[C@@H]2O[C@H](CO)[C@H](O)[C@H](O)[C@H]2O)C1 (stereo partly drawn) [Example E10, Nα-[3-(1-Thio-β-D-galactopyranosyl)cyclohex-1-yl]glycine]	–	at least 20%
CC(=O)NC1CCCCC1S[C@@H]1O[C@H](CO)[C@H](O)[C@H](O)[C@H]1O (stereo partly drawn) [Example C2, 2-Acetamidocyclohex-1-yl 1-Thio-β-D-galactopyranoside]	–	at least 20%
CC1(C)CC(NCCC(=O)O)CC1S[C@@H]1O[C@H](CO)[C@H](O)[C@H](O)[C@H]1O (stereo partly drawn) [Example F6, Nβ-[4,4-Dimethyl-3-(1-thio-β-D-galactopyranosyl)-cyclopent-1-yl]-βalanine]	< 20%	–
CC1CCC(NC2CC(S[C@@H]3O[C@H](CO)[C@H](O)[C@H](O)[C@H]3O)C(C)(C)C2)C1 (stereo partly drawn) [Example B6Q, 2,2-Dimethyl-4-(3-methylcyclopent-1-ylamino)-cyclopent-1-yl 1-Thio-β-D-galactopyranoside]	≥ 20%	–
CNC1CC(S[C@@H]2O[C@H](CO)[C@H](O)[C@H](O)[C@H]2O)C(C)(C)C1 (stereo partly drawn) [Example B6A, 2,2-Dimethyl-4-(methylamino)-cyclopent-1-yl 1-Thio-β-D-galactopyranoside]	≥ 20%	–
CC(C)C[C@H](NC(C)CC(S[C@@H]1O[C@H](CO)[C@H](O)[C@H](O)[C@H]1O)c1ccccc1)C(=O)O (stereo partly drawn) [Example G3, Nα-[4-Phenyl-4-(1-thio-β-galactopyranosyl)but-2-yl]-L-leucine]	< 20%	–
CC1(C)CCC(NCCC(=O)O)CC1S[C@@H]1O[C@H](CO)[C@H](O)[C@H](O)[C@H]1O (stereo partly drawn) [Example F9, Nβ-[4,4Dimethyl-3-(1-thio-β-D-galactopyranosyl)-cyclohex-1-yl]-β-alanime]	< 20%	–
CC1(C)CC(N[C@@H](CCCNC(=N)N)C(=O)O)CC1S[C@@H]1O[C@H](CO)[C@H](O)[C@H](O)[C@H]1O (stereo partly drawn) [Example J6, Nα-[4,4-Dimethyl-3-(1-thio-β-D-galactopyranosyl)-cyclopent-1-yl]-L-arginine]	< 20%	–
CC(CC(S[C@@H]1O[C@H](CO)[C@H](O)[C@H](O)[C@H]1O)c1ccccc1)NC(=O)c1ccccc1C(=O)O (stereo partly drawn) [Example D3, 3-(2-Carboxybenzamido)-1-phenylbut-1-yl 1-Thio-β-D-galactopyranoside]	< 20%	–
N=C(N)NCCC[C@H](NC1CCCC1S[C@@H]1O[C@H](CO)[C@H](O)[C@H](O)[C@H]1O)C(=O)O (stereo partly drawn) [Example J1, Nα-[2-(1-Thio-β-D-galactopyranosyl)cyclopent-1-yl]-L-arginine]	≥ 20%	–
CC(N)CC(C)S[C@@H]1O[C@H](CO)[C@H](O)[C@H](O)[C@H]1O (stereo partly drawn) [Example B8, 4-Aminopent-2-yl 1-Thio-β-D-galactopyranoside]	≥ 20%	–
CC(=O)NC1CCCC1S[C@@H]1O[C@H](CO)[C@H](O)[C@H](O)[C@H]1O (stereo partly drawn) [Example C1, 2-Acetamidocyclopent-1-yl 1-Thio-β-D-galactopyranoside]	< 20%	–
CC(C)C[C@H](NC1CCC(S[C@@H]2O[C@H](CO)[C@H](O)[C@H](O)[C@H]2O)C1)C(=O)O (stereo partly drawn) [Example G7, Nα-[3-(1-Thio-β-D-galactopyranosyl)cyclopent-1-yl]-L-leucine]	< 20%	–

Compound	inhibition at 1000 µg/mL (cholera toxin)	inhibition of binding of heat-labile enterotoxin to ganglioside GD1b [1]
CC(CC(C)S[C@@H]1O[C@H](CO)[C@H](O)[C@H](O)[C@H]1O)N[C@@H](CCCNC(=N)N)C(=O)O (stereo partly drawn) [Example J8, Nα-[4-(1-Thio-β-D-galactopyranosyl)pent-2-yl]-L-arginine]	< 20%	–
O=C(O)c1ccccc1C(=O)NC1CCCC1S[C@@H]1O[C@H](CO)[C@H](O)[C@H](O)[C@H]1O (stereo partly drawn) [Example D1, 2-(2-Carboxybenzamido)cyclopent-1-yl 1-Thio-β-D-galactopyranoside]	≥ 20%	–
CC(CC(C)S[C@@H]1O[C@H](CO)[C@H](O)[C@H](O)[C@H]1O)NCC(=O)O (stereo partly drawn) [Example E8, Nα-[4-(1-Thio-β-D-galactopyranosyl)pent-2-yl]glycine]	< 20%	–
O=C(O)[C@H](Cc1c[nH]c2ccccc12)NC1CCCC(S[C@@H]2O[C@H](CO)[C@H](O)[C@H](O)[C@H]2O)C1 (stereo partly drawn) [Example I10, Nα-[3-(1-Thio-β-D-galactopyranosyl)cyclohex-1-yl]-L-tryptophan]	< 20%	–
CC(CC(S[C@@H]1O[C@H](CO)[C@H](O)[C@H](O)[C@H]1O)c1ccccc1)N[C@@H](Cc1c[nH]c2ccccc12)C(=O)O (stereo partly drawn) [Example I3, Nα-[4-Phenyl-4-(1-thio-β-D-galactopyranosyl)but-2-yl]-L-tryptophan]	≥ 20%	–
CC(CC(C)S[C@@H]1O[C@H](CO)[C@H](O)[C@H](O)[C@H]1O)N[C@@H](Cc1c[nH]c2ccccc12)C(=O)O (stereo partly drawn) [Example I8, Nα-[4-(1-Thio-β-D-galactopyranosyl)pent-2-yl]-L-tryptophan]	< 20%	–
CC(CC(C)S[C@@H]1O[C@H](CO)[C@H](O)[C@H](O)[C@H]1O)NC(=O)c1ccccc1C(=O)O (stereo partly shown) [Example D8]	≥ 20%	–
N=C(N)NCCC[C@H](NC1CCCCC(S[C@@H]2O[C@H](CO)[C@H](O)[C@H](O)[C@H]2O)C1)C(=O)O (stereo partly drawn) [Example J5, Nα-[3-(1-Thio-β-D-galactopyranosyl)cyclohept-1-yl]-L-arginine]	< 20%	–
O=C(O)CNC1CCCCC(S[C@@H]2O[C@H](CO)[C@H](O)[C@H](O)[C@H]2O)C1 (stereo partly drawn) [Example E5, Nα-[3-(1-Thio-β-D-galactopyranosyl)cyclohept-1-yl]glycine]	< 20%	–
CC(C)C[C@H](NC(C)CC(C)S[C@@H]1O[C@H](CO)[C@H](O)[C@H](O)[C@H]1O)C(=O)O (stereo partly drawn) [Example G8, Nα-[4-(1-Thio-β-D-galactopyranosyl)pent-2-yl]-L-leucine]	< 20%	–
CC1(C)CCC(NCC(=O)O)CC1S[C@@H]1O[C@H](CO)[C@H](O)[C@H](O)[C@H]1O (stereo partly drawn) [Example E9, Nα-[4,4-Dimethyl-3-(1-thio-β-D-galactopyranosyl)-cyclohex-1-yl]glycine]	< 20%	–
CC1(C)CC(N)CC1S[C@@H]1O[C@H](CO)[C@H](O)[C@H](O)[C@H]1O (stereo partly drawn) [Example B6, 2,2-Dimethyl-4aminocyclopent-1-yl 1-Thio-β-D-galactopyranoside]	≥ 20%	–
CC1(C)CC(O)CC1S[C@@H]1O[C@H](CO)[C@H](O)[C@H](O)[C@H]1O (stereo partly drawn) [Example A6, 2,2-Dimethyl-4-hydroxycyclopent-1-yl 1-Thio-β-D-galactopyranoside]	< 20%	–
CC(CC(S[C@@H]1O[C@H](CO)[C@H](O)[C@H](O)[C@H]1O)c1ccccc1)N[C@@H](CCCNC(=N)N)C(=O)O (stereo partly drawn) [Example J3, Nα-[4-Phenyl-4-(1-Thio-β-D-galactopyranosyl)but-2-yl]-L-arginine]	≥ 20%	–
CC1(C)CCC(N[C@@H](Cc2c[nH]c3ccccc23)C(=O)O)CC1S[C@@H]1O[C@H](CO)[C@H](O)[C@H](O)[C@H]1O (stereo partly drawn) [Example I9, Nα-[4,4-Dimethyl-3-(1-thio-β-D-galactopyranosyl)-cyclohex-1-yl]-L-tryptophan]	< 20%	–
CC(O)CC(S[C@@H]1O[C@H](CO)[C@H](O)[C@H](O)[C@H]1O)c1ccccc1 (stereo partly drawn) [Example A3, 3-Hydroxy-1-phenylbut-1-yl 1-Thio-β-D-galactopyranoside]	< 20%	–
CC(C)C[C@H](NC1CCC(C)(C)C(S[C@@H]2O[C@H](CO)[C@H](O)[C@H](O)[C@H]2O)C1)C(=O)O (stereo partly drawn) [Example G9, Nα-[4,4-Dimethyl-3-(1-thio-β-D-galactopyranosyl)-cyclohex-1-yl]-L-leucine]	< 20%	–
CC(N)CC(S[C@@H]1O[C@H](CO)[C@H](O)[C@H](O)[C@H]1O)c1ccccc1 (stereo partly drawn) [Example B3, 3-Amino-1-phenylbut-1-yl 1-Thio-β-D-galactopyranoside]	< 20%	–
CC(=O)NC(C)CC(C)S[C@@H]1O[C@H](CO)[C@H](O)[C@H](O)[C@H]1O (stereo partly drawn) [Example C8, 4-Acetamidopent-2-yl 1-Thio-β-D-galactopyranoside]	< 20%	–
CC(O)CC(C)S[C@@H]1O[C@H](CO)[C@H](O)[C@H](O)[C@H]1O (stereo partly drawn) [Example A8, 4Hydroxypent-2-yl 1-Thio-β-D-galactopyranoside]	< 20%	–
